# Earlier results, collected in patent US9463220B2, “Method for inducing twin calving” (China Agricultural University, priority 2013, dated 2016).
# Test system: cow
# Settings: small doses of FSH with estrus synchronization 13 days before and aspiration of more than 3 large follicles on day 7
substance,measurement,value
follicle-stimulating hormone [FSH],rate of 2-3 ovulations,90%
